pKd: −log10 of the molar value. Where “and” joins values, the source holds several entries; their conditions need not be identical. Equal entries are not always repeated. Where two headings read alike, the source gives them in different places.
Key:
[1] = known indicator, literature value (ref. 15); cited from earlier work
[2] = tested on: Primary rat hippocampal neurons; experiment: Calcium indicators characterization in primary neuron culture (evoked action potentials); format: cell-based; conditions: for ΔF/F0, single AP: 1 AP
Protocol: Synaptic blockers (10 μM CNQX, 10 μM CPP, 10 μM GABAZINE, and 1 mM MCPG) were added to block ionotropic glutamate, GABA, and metabotropic glutamate receptors.^21 Each measurement was performed on 3 to 5 wells replicates.
Wide-field imaging was performed on an inverted Nikon Eclipse Ti2 microscope equipped with a SPECTRA X light engine (Lumencore), 20× objective (NA=0.75, Nikon), and imaged onto a scientific CMOS camera (Hamamatsu ORCA-Flash 4.0). […] A quad bandpass filter (set number: 89000, Chroma) was used along with the appropriate color band from the SPECTRA X light source to image 13AM.

[3] = tested on: primary cilium in hRPE1 cells expressing 5HT6-HaloTag; conditions: Ca2+ uncaging with 405 nm light
Protocol: Tet-on 5HT6-HaloTag RPE cells were plated in 8-well Labtek II chambers (Invitrogen) in 10% FBS DMEM:F12 media. The next day, the cells were serum deprived with 0% FBS DMEM:F12 medium with 100 ng/ml doxycycline to induce 5HT6-HaloTag expression. After 24 h of serum deprivation and doxycycline induction, cells were labeled with 1 μM 13AM overnight. After rinsing in DMEM:F12, the cells were loaded with 4 μM NP-EGTA, AM (ThermoFisher N6803) for 1 h. The medium was then replaced by DMEM Fluorobrite (ThermoFisher) for imaging in a 37° C., 5% CO2 chamber on an inverted Zeiss 880 with Airyscan. For each single cilium, 405 nm laser light (100%, 15 mW, 3s) uncaged free Ca^2+ from NP-EGTA in a 50-70 μm^2 area. Airyscan images were acquired at 0.5-0.8 s/stack for a total of 100 stacks (50-80 s) with 633 laser lines (13AM). Calcium uncaging was performed at the 50th stack. Change in intensity values were calculated in ImageJ using a maximum intensity projection series.

[4] = Calcium titrations in EGTA buffer system (ΔF/F0, Kd determination); format: binding; conditions: for pKd: in vitro Ca2+ binding; for ΔF/F0: Ca2+-dependent change in fluorescence over baseline
Protocol: (§1) All measurements were taken at ambient temperature (23±2° C.). […] Spectroscopy was performed using 1-cm path length quartz cuvettes (Starna). Absorption measurements were recorded on a Cary Model 100 spectrometer (Varian). Fluorescence measurements spectra were recorded on a Cary Eclipse fluorometer (Varian). Images were processed in ImageJ/Fiji. Data was analyzed and graphs were plotted using Prism (GraphPad). Movie renderings were done using Imaris (Bitplane)
(§2) Example 15: UV-Vis and Fluorescence Spectroscopy, Kd Determination. UV-Vis and fluorescence spectra were measured in a commercial EGTA buffer system (Invitrogen) following the associated protocol. […] For calcium titrations of the HaloTag ligands in the presence of HaloTag protein, the dye was incubated with 1.5 eq of purified HaloTag protein ([…] solution in 75 mM NaCl, 50 mM Tris-HCl, pH 7.4) for 1 h at room temperature. Calcium titrations were then performed using the commercial EGTA buffer system to which 0.1 mg·mL^−1 CHAPS was added. All the calcium titrations were performed in duplicate.

[5] = UV-Vis and fluorescence spectroscopy; format: physicochemical; conditions: in vitro; for λmax: first value of λmax/λem; for λem: second value of λmax/λem
Protocol: as §1, §2

[6] = Quantum yield determination; format: physicochemical; conditions: fluorescence quantum yield at saturating Ca2+
Protocol: Example 16: Quantum Yield Determination. Absolute quantum yields (Φ) were measured using a Quantaurus-QY spectrometer (model C11374) from Hamamatsu. This instrument uses an integrating sphere to determine photons absorbed and emitted by a sample. Measurements were carried out using dilute samples (A<0.1) and self-absorption corrections were performed using the instrument software.^27

[7] = target: HaloTag protein (Rhodococcus rhodochrous, UniProt P0A3G2, A155T/A167V/A172T/A224E/C128F/C176G/D78G/E160K/E257K/H272N/K175M/K195N/L47V/L88M/N227D/P291S/S2A/S58T/T264A/Y273L/Y87F); experiment: Calcium titrations in the presence or absence of excess HaloTag protein; format: biochemical; conditions: in vitro; saturating [Ca2+]
Protocol: as §2

[8] = tested on: cultured neurons expressing NES-HaloTag-GFP; conditions: cells expressing NES-HaloTag-GFP; same imaging conditions; normalized to GFP
Protocol: Primary rat hippocampal neurons were prepared as described previously and infected with AAV viruses.^1 Stock solutions of the different calcium indicators were prepared at C=1 mM in DMSO containing 20% Pluronic F-127. Cultured neurons were incubated with the cell-permeant sensors at 37° C. for 30 min (7AM and Calcium Orange-AM) or 2 h (12AM and 13AM) before washing twice with imaging buffer containing the following: 145 mM NaCl, 2.5 mM KCl, 10 mM glucose, 10 mM HEPES, pH 7.4, 2 mM CaCl2), 1 mM MgCl2. Synaptic blockers (10 μM CNQX, 10 μM CPP, 10 μM GABAZINE, and 1 mM MCPG) were added to block ionotropic glutamate, GABA, and metabotropic glutamate receptors.^21 Each measurement was performed on 3 to 5 wells replicates.
Wide-field imaging was performed on an inverted Nikon Eclipse Ti2 microscope equipped with a SPECTRA X light engine (Lumencore), 20× objective (NA=0.75, Nikon), and imaged onto a scientific CMOS camera (Hamamatsu ORCA-Flash 4.0). […]
Brightness comparison: The brightness of 12AM, jRGECO1a and jRCaMP1b in neurons were compared under the same illumination conditions. The fluorescence emission in each field of view was background subtracted and normalized by the emission of the fused EGFP to account for differences in expression levels among neurons.

[9] = known indicator, cited from earlier work
[10] = known indicator, literature value (ref. 15); saturating Ca2+; cited from earlier work
[11] = cultured hippocampal neurons loaded with AM ester

Sequence of HaloTag protein (P0A3G2 other isoform, or with tags, fused parts or gaps with the stated changes): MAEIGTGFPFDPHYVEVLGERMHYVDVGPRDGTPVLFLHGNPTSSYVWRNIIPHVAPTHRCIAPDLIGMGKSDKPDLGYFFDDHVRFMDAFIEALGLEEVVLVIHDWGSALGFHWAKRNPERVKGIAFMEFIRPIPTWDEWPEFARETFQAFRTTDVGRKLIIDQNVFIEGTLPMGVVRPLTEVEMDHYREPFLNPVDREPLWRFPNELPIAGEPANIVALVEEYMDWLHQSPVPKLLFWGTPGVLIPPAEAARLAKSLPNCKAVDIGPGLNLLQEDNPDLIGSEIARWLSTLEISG

Row | Compound | pKd [4] | ΔF/F0 ([4]; in vitro) | λmax [5] | λem [5] | ϕsat [6] | other results
1 | Oregon Green BAPTA-1 [Compound 1] |  |  |  |  |  | pKd [1]: 6.77; ΔF/F0 [1]: 14
2 | 3″-BAPTA-JF646-HaloTag ligand tetra acetoxymethyl ester [Compound 13AM] |  |  |  |  |  | ΔF/F0, single AP ([2]; cultured hippocampal neurons expressing NES-HaloTag-GFP): 0.11; ΔF/F0 across the entire cilium [3]: 0.60
3 | O=C(O)CN(CC(=O)O)c1ccccc1OCCOc1cc(NC(=O)c2ccc(C(=O)[O-])c(-c3c4ccc(=[N+]5CCC5)cc-4oc4cc(N5CCC5)ccc34)c2)ccc1N(CC(=O)O)CC(=O)O [Compound 4, 6-BAPTA-JF549] | 6.46 | 4.6 | 555 nm | 576 nm | 0.78 | improvement in ΔF/F0 compared to 3 ([4]; in vitro): 2 fold
4 | C[Si]1(C)c2cc(N3CCC3)ccc2C2(OC(=O)c3ccc(C(=O)NCCOCCOCCCCCCCl)cc32)c2ccc(N3CC(C(=O)Nc4ccc(N(CC(=O)O)CC(=O)O)c(OCCOc5ccccc5N(CC(=O)O)CC(=O)O)c4)C3)cc21 (stereo not drawn) [Compound 13, 3″-BAPTA-JF646-HaloTag ligand] | 6.55 | 7.8 | 646 nm | 666 nm | 0.58 | increase in fluorescence upon binding to HaloTag [7]: 2.4 fold
5 | O=C(O)CN(CC(=O)O)c1ccccc1OCCOc1cc(NC(=O)C2C[N+](=c3ccc4c(-c5cc(C(=O)NCCOCCOCCCCCCCl)ccc5C(=O)[O-])c5ccc(N6CCC6)cc5oc-4c3)C2)ccc1N(CC(=O)O)CC(=O)O (stereo not drawn) [Compound 12, 3″-BAPTA-JF549-HaloTag ligand] | 6.54 | 14 and 13.8 | 550 nm | 574 nm | 0.74 | 
6 | O=C(O)CN(CC(=O)O)c1ccc(NC(=O)C2CN(c3ccc4c(-c5ccccc5C(=O)O)c5ccc(=[N+]6CCC6)cc-5oc4c3)C2)cc1OCCOc1cc(NC(=O)C2C[N+](=c3ccc4c(-c5ccccc5C(=O)O)c5ccc(N6CCC6)cc5oc-4c3)C2)ccc1N(CC(=O)O)CC(=O)O (stereo not drawn) [Compound 9, 3″-BAPTA-bisJF549] |  | 75.0 | 512-549 nm | 570 nm | 0.20 | 
7 | O=C(O)CN(CC(=O)O)c1ccccc1OCCOc1cc(NC(=O)C2CC/[N+]2=c2/ccc3c(-c4ccccc4C(=O)[O-])c4ccc(N5CCC5)cc4oc-3c2)ccc1N(CC(=O)O)CC(=O)O (stereo not drawn) [Compound 6, 2″-BAPTA-JF549] | 6.57 | 27.7 | 542 nm | 566 nm | 0.45 | 
8 | 3″-BAPTA-JF549-HaloTag ligand tetra acetoxymethyl ester [Compound 12AM] |  |  |  |  |  | baseline fluorescence, brighter than jRCaMP1b [8]: 3.6 fold; baseline fluorescence, brighter than jRGECO1a [8]: 7.8 fold
9 | O=C(O)CN(CC(=O)O)c1ccccc1OCCOc1cc(NC(=O)C2C[N+](=c3ccc4c(-c5ccccc5C(=O)[O-])c5ccc(N6CCC6)cc5oc-4c3)C2)ccc1N(CC(=O)O)CC(=O)O (stereo not drawn) [Compound 7, 3″-BAPTA-JF549] | 6.51 | 15.0 | 546 nm | 569 nm | 0.75 | red-shift of λex and λem relative to compound 1 [5]: 50 nm
10 | 3″-BAPTA-JF549-HaloTag ligand [Compound 12] | 6.89 | 9.5 | 553 nm | 573 nm | 0.78 | 
11 | O=C(O)CN(CC(=O)O)c1ccccc1OCCOc1cc(NC(=O)C2CN(c3ccc4c(-c5ccccc5C(=O)[O-])c5ccc(=[N+]6CC(C(=O)Nc7ccc(N(CC(=O)O)CC(=O)O)c(OCCOc8ccccc8N(CC(=O)O)CC(=O)O)c7)C6)cc-5oc4c3)C2)ccc1N(CC(=O)O)CC(=O)O (stereo not drawn) [Compound 8, 3″,3″′-bisBAPTA-JF549] | 6.14 | 47.0 | 543 nm | 566 nm | 0.70 | 
12 | 3″-BAPTA-JF549 tetra-acetoxymethyl ester [Compound 7AM] |  |  |  |  |  | saturating number of APs [2, 11]: 40 APs; ΔF/F0, single AP [2, 11]: 0.20; maximal ΔF/F0 ([2]; cultured hippocampal neurons loaded with AM ester, at saturation): 0.80; brightness compared to cells loaded with 2AM ([2]; cultured neurons): 10 ×; ΔF/F0 compared to cells loaded with 2AM ([2]; cultured neurons): 10 ×
13 | Calcium Orange [Compound 2] |  |  |  |  |  | λem ([9]; literature value (ref. 15)): 574 nm; λmax ([9]; literature value (ref. 15)): 549 nm; excitation maxima (λex) ([9]; literature value): 549 nm; ϕsat [10]: 0.33; pKd [1]: 6.73; ΔF/F0 [1]: 3
14 | CN(C(=O)c1cccc(C(=O)O)c1-c1c2ccc(=[N+]3CCC3)cc-2oc2cc(N3CCC3)ccc12)c1ccc(N(CC(=O)O)CC(=O)O)c(OCCOc2ccccc2N(CC(=O)O)CC(=O)O)c1 [Compound 5, 7-MeBAPTA-JF549] | 6.24 | 14 | 565 nm | 583 nm | 0.18 | 
15 | O=C(O)CN(CC(=O)O)c1ccccc1OCCOc1cc(NC(=O)c2ccc(-c3c4ccc(=[N+]5CCC5)cc-4oc4cc(N5CCC5)ccc34)c(C(=O)[O-])c2)ccc1N(CC(=O)O)CC(=O)O [Compound 3, 5-BAPTA-JF549] | 6.72 | 2.3 | 554 nm | 579 nm | 0.69 | 
